US12479840B2, “HMG-CoA reductase degradation inducing compound” (Uppthera, priority 2020, dated 2025)

Biological target: T1, HMG-CoA reductase (Homo sapiens, UniProt P04035)
T1 construct: endogenous in cells; host or cells: HepG2 (Korea Cell Line Bank)
T1 sequence (P04035 1-888): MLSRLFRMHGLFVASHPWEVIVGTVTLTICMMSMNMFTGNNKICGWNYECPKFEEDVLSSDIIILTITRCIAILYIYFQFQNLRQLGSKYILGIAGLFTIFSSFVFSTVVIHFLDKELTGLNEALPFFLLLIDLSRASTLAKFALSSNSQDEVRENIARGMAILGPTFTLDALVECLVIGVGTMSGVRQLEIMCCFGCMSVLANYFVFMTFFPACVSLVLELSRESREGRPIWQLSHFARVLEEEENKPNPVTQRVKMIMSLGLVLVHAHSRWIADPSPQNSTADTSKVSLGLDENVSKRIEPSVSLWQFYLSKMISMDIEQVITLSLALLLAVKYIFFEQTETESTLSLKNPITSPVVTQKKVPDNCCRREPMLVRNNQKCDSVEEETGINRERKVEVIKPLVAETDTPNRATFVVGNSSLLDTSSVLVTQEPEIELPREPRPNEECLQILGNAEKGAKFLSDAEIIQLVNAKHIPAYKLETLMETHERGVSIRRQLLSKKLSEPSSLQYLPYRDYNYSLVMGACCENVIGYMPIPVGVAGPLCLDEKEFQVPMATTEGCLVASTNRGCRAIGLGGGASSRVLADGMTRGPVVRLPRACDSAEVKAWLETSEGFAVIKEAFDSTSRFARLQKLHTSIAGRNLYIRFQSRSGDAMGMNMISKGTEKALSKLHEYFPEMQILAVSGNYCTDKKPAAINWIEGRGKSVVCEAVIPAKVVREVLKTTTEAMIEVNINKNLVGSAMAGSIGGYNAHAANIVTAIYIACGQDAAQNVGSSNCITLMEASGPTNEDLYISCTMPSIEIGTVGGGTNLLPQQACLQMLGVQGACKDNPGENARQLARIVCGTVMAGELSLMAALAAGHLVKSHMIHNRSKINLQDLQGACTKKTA
Assay: HMG-CoA reductase (HMGCR) degradation in HepG2 cells by western blotting
Assay type: cell-based
Settings: treated for 18 hours, ratio of HMG-CoA reductase to GAPDH, read-out: DC50
Method in brief: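 Western blot read-out: HMGCR protein probed (1:500, 16 hours at 4° C) alongside GAPDH loading control on 15 μg BCA-normalised RIPA lysates. Lysates came from HepG2 cells (P105–P110) exposed for 18 hours to a 10-point, three-fold series starting at 3 μM.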

SMILES	DC50
C[C@H]1C=C2C=C[C@H](C)[C@H](CC[C@@H]3C[C@@H](O)CC(=O)O3)[C@H]2[C@@H](OC(=O)NCCOCCOCCOCCOCCOCCOCCNc2cccc3c2C(=O)N(C2CCC(=O)NC2=O)C3=O)C1 (stereo partly drawn) [Compound 44, (1S,3R,7S,8S,8aR)-8-(2-((2R,4R)-4-hydroxy-6-oxotetrahydro-2H-pyran-2-yl)ethyl)-3,7-dimethyl-1,2,3,7,8,8a-hexahydronaphthalen-1-yl (20-((2-(2,6-dioxopiperidin-3-yl)-1,3-dioxoisoindolin-4-yl)amino)-3,6,9,12,15,18-hexaoxaicosyl)carbamate]	< 50 nM
C[C@H]1C=C2C=C[C@H](C)[C@H](CC[C@@H]3C[C@@H](O[Si](C)(C)C(C)(C)C)CC(=O)O3)[C@H]2[C@@H](OC(=O)NCCOCCOCCOCCNc2ccccc2)C1 [Compound 45, (1S,3R,7S,8S,8aR)-8-(2-((2R,4R)-4-((tert-butyldimethylsilyl)oxy)-6-oxotetrahydro-2H-pyran-2-yl)ethyl)-3,7-dimethyl-1,2,3,7,8,8a-hexahydronaphthalen-1-yl (2-(2-(2-(2-(phenylamino)ethoxy)ethoxy)ethoxy)ethyl)carbamate]	> 500 nM
C[C@H]1C=C2C=C[C@H](C)[C@H](CC[C@@H]3C[C@@H](O[Si](C)(C)C(C)(C)C)CC(=O)O3)[C@H]2[C@@H](OC(=O)NCCOCCOCCNc2cccc3c2C(=O)N(C2CCC(=O)NC2=O)C3=O)C1 (stereo partly drawn) [Compound 46, (1S,3R,7S,8S,8aR)-8-(2-((2R,4R)-4-((tert-butyldimethylsilyl)oxy)-6-oxotetrahydro-2H-pyran-2-yl)ethyl)-3,7-dimethyl-1,2,3,7,8,8a-hexahydronaphthalen-1-yl (2-(2-(2-((2-(2,6-dioxopiperidin-3-yl)-1,3-dioxoisoindolin-4-yl)amino)ethoxy)ethoxy)ethyl)carbamate]	< 50 nM
C[C@H]1C=C2C=C[C@H](C)[C@H](CC[C@@H]3C[C@@H](O[Si](C)(C)C(C)(C)C)CC(=O)O3)[C@H]2[C@@H](OC(=O)NCCOCCOCCOCCNc2cccc3c2C(=O)N(C2CCC(=O)NC2=O)C3=O)C1 (stereo partly drawn) [Compound 47, (1S,3R,7S,8S,8aR)-8-(2-((2R,4R)-4-((tert-butyldimethylsilyl)oxy)-6-oxotetrahydro-2H-pyran-2-yl)ethyl)-3,7-dimethyl-1,2,3,7,8,8a-hexahydronaphthalen-1-yl (2-(2-(2-(2-((2-(2,6-dioxopiperidin-3-yl)-1,3-dioxoisoindolin-4-yl)amino)ethoxy)ethoxy)ethoxy)ethyl)carbamate]	< 50 nM
C[C@H]1C=C2C=C[C@H](C)[C@H](CC[C@@H]3C[C@@H](O[Si](C)(C)C(C)(C)C)CC(=O)O3)[C@H]2[C@@H](OC(=O)NCCOCCOCCOCCOCCNc2cccc3c2C(=O)N(C2CCC(=O)NC2=O)C3=O)C1 (stereo partly drawn) [Compound 48, (1S,3R,7S,8S,8aR)-8-(2-((2R,4R)-4-((tert-butyldimethylsilyl)oxy)-6-oxotetrahydro-2H-pyran-2-yl)ethyl)-3,7-dimethyl-1,2,3,7,8,8a-hexahydronaphthalen-1-yl (14-((2-(2,6-dioxopiperidin-3-yl)-1,3-dioxoisoindolin-4-yl)amino)-3,6,9,12-tetraoxatetradecyl)carbamate]	< 50 nM
C[C@H]1C=C2C=C[C@H](C)[C@H](CC[C@@H]3C[C@@H](O[Si](C)(C)C(C)(C)C)CC(=O)O3)[C@H]2[C@@H](OC(=O)NCCOCCOCCOCCOCCOCCNc2cccc3c2C(=O)N(C2CCC(=O)NC2=O)C3=O)C1 (stereo partly drawn) [Compound 49, (1S,3R,7S,8S,8aR)-8-(2-((2R,4R)-4-((tert-butyldimethylsilyl)oxy)-6-oxotetrahydro-2H-pyran-2-yl)ethyl)-3,7-dimethyl-1,2,3,7,8,8a-hexahydronaphthalen-1-yl (17-((2-(2,6-dioxopiperidin-3-yl)-1,3-dioxoisoindolin-4-yl)amino)-3,6,9,12,15-pentaoxaheptadecyl)carbamate]	< 50 nM
C[C@H]1C=C2C=C[C@H](C)[C@H](CC[C@@H]3C[C@@H](O[Si](C)(C)C(C)(C)C)CC(=O)O3)[C@H]2[C@@H](OC(=O)NCCOCCOCCOCCOCCOCCOCCNc2cccc3c2C(=O)N(C2CCC(=O)NC2=O)C3=O)C1 (stereo partly drawn) [Compound 50, (1S,3R,7S,8S,8aR)-8-(2-((2R,4R)-4-((tert-butyldimethylsilyl)oxy)-6-oxotetrahydro-2H-pyran-2-yl)ethyl)-3,7-dimethyl-1,2,3,7,8,8a-hexahydronaphthalen-1-yl (20-((2-(2,6-dioxopiperidin-3-yl)-1,3-dioxoisoindolin-4-yl)amino)-3,6,9,12,15,18-hexaoxaicosyl)carbamate]	< 50 nM
C[C@H]1C=C2C=C[C@H](C)[C@H](CC[C@@H]3C[C@@H](O[Si](C)(C)C(C)(C)C)CC(=O)O3)[C@H]2[C@@H](OC(=O)NCCCCCNc2cccc3c2C(=O)N(C2CCC(=O)NC2=O)C3=O)C1 (stereo partly drawn) [Compound 51, (1S,3R,7S,8S,8aR)-8-(2-((2R,4R)-4-((tert-butyldimethylsilyl)oxy)-6-oxotetrahydro-2H-pyran-2-yl)ethyl)-3,7-dimethyl-1,2,3,7,8,8a-hexahydronaphthalen-1-yl (5-((2-(2,6-dioxopiperidin-3-yl)-1,3-dioxoisoindolin-4-yl)amino)pentyl)carbamate]	< 50 nM
C[C@H]1C=C2C=C[C@H](C)[C@H](CC[C@@H]3C[C@@H](O[Si](C)(C)C(C)(C)C)CC(=O)O3)[C@H]2[C@@H](OC(=O)NCCCCCCNc2cccc3c2C(=O)N(C2CCC(=O)NC2=O)C3=O)C1 (stereo partly drawn) [Compound 52, (1S,3R,7S,8S,8aR)-8-(2-((2R,4R)-4-((tert-butyldimethylsilyl)oxy)-6-oxotetrahydro-2H-pyran-2-yl)ethyl)-3,7-dimethyl-1,2,3,7,8,8a-hexahydronaphthalen-1-yl (6-((2-(2,6-dioxopiperidin-3-yl)-1,3-dioxoisoindolin-4-yl)amino)hexyl)carbamate]	< 50 nM
C[C@H]1C=C2C=C[C@H](C)[C@H](CC[C@@H]3C[C@@H](O[Si](C)(C)C(C)(C)C)CC(=O)O3)[C@H]2[C@@H](OC(=O)NCCCCCCCNc2cccc3c2C(=O)N(C2CCC(=O)NC2=O)C3=O)C1 (stereo partly drawn) [Compound 53, (1S,3R,7S,8S,8aR)-8-(2-((2R,4R)-4-((tert-butyldimethylsilyl)oxy)-6-oxotetrahydro-2H-pyran-2-yl)ethyl)-3,7-dimethyl-1,2,3,7,8,8a-hexahydronaphthalen-1-yl (7-((2-(2,6-dioxopiperidin-3-yl)-1,3-dioxoisoindolin-4-yl)amino)heptyl)carbamate]	< 50 nM
C[C@H]1C=C2C=C[C@H](C)[C@H](CC[C@@H]3C[C@@H](O[Si](C)(C)C(C)(C)C)CC(=O)O3)[C@H]2[C@@H](OC(=O)NCCCCCCCCNc2cccc3c2C(=O)N(C2CCC(=O)NC2=O)C3=O)C1 (stereo partly drawn) [Compound 54, (1S,3R,7S,8S,8aR)-8-(2-((2R,4R)-4-((tert-butyldimethylsilyl)oxy)-6-oxotetrahydro-2H-pyran-2-yl)ethyl)-3,7-dimethyl-1,2,3,7,8,8a-hexahydronaphthalen-1-yl (8-((2-(2,6-dioxopiperidin-3-yl)-1,3-dioxoisoindolin-4-yl)amino)octyl)carbamate]	< 50 nM
C[C@H]1C=C2C=C[C@H](C)[C@H](CC[C@@H]3C[C@@H](O[Si](C)(C)C(C)(C)C)CC(=O)O3)[C@H]2[C@@H](OC(=O)NCCCCCCCCCNc2cccc3c2C(=O)N(C2CCC(=O)NC2=O)C3=O)C1 (stereo partly drawn) [Compound 55, (1S,3R,7S,8S,8aR)-8-(2-((2R,4R)-4-((tert-butyldimethylsilyl)oxy)-6-oxotetrahydro-2H-pyran-2-yl)ethyl)-3,7-dimethyl-1,2,3,7,8,8a-hexahydronaphthalen-1-yl (9-((2-(2,6-dioxopiperidin-3-yl)-1,3-dioxoisoindolin-4-yl)amino)nonyl)carbamate]	< 50 nM
C[C@H]1C=C2C=C[C@H](C)[C@H](CC[C@@H]3C[C@@H](O[Si](C)(C)C(C)(C)C)CC(=O)O3)[C@H]2[C@@H](OC(=O)NCCCCCCCCCCNc2cccc3c2C(=O)N(C2CCC(=O)NC2=O)C3=O)C1 (stereo partly drawn) [Compound 56, (1S,3R,7S,8S,8aR)-8-(2-((2R,4R)-4-((tert-butyldimethylsilyl)oxy)-6-oxotetrahydro-2H-pyran-2-yl)ethyl)-3,7-dimethyl-1,2,3,7,8,8a-hexahydronaphthalen-1-yl (10-((2-(2,6-dioxopiperidin-3-yl)-1,3-dioxoisoindolin-4-yl)amino)decyl)carbamate]	< 50 nM
